The structures appear in SMILES notation.

The subject of experiment [1] is Jagged1 expression. The experiment can be described thus: Jagged1 mRNA expression in cell lines after chemotherapy agents. It counts as cell-based. Particulars: 48 hr; for Jagged1 expression: MC3T3-E1 pre-osteoblast cells and MSCs, 25 nM paclitaxel or 10 μM cisplatin; for Jagged1 induction: endothelial cells, RAW 264.7 pre-osteoclasts, SCP28 and SUM1315-M1B1 tumor cells. As to the method: (§1) FIG. 5. Chemotherapy induces Jagged1 expression in osteoblast lineage cells. (A) Jagged1 mRNA expression in osteoblast MC3T3-E1-Clone #4 osteoblast cells and mesenchymal stem cells (MSC), HPMECL endothelial cells (endo), RAW264.7 pre-osteoclast cells, and SCP28 and SUM1315-M1B1 breast tumor cells 48 hr post-treatment with 25 nM paclitaxel or 10 μM cisplatin. (B) Athymic nude mice were i.v. injected with PBS or cisplatin and euthanized 48 hr later. Hind limb bones were collected for IF staining against Alp (green) and Jagged1 (red). Nuclei were counter-stained with DAPI (blue). (C-E) Athymic nude mice were treated with either PBS or cisplatin on Day 0. One day after the pre-treatment, MCF7 (C), SUM1315-M1B1 (D) or SCP28 (E) cells were delivered locally to the hind limbs of these mice by IIA injection. BLI imaging and quantification of BLI signal at Day 4. (F) Mice from experiment in E were euthanized after BLI imaging at Day 4. Hind limbs were fixed and processed for IF imaging of GFP-expressing tumor cells (green) and ALP positive osteoblasts (red). Size bar: 80 μm. In A: n=3. *p<0.05 by Student's t-test. In C-E: n=5. *p<0.05 by Student's t-test. #: statistically insignificant.
The possibility that chemotherapy agents may induce Jagged1 expression in either tumor cells or in the bone stromal cells was considered. […] Key stromal cell types in bone metastasis include osteoclasts, osteoblasts and their progenitors (such as mesenchymal stem cells (MSCs)), and endothelial cells. Whether Jagged1 could be induced in these cells and various breast cancer cell lines upon treatment of two different chemotherapy agents, paclitaxel and cisplatin, which are commonly used in the treatment of breast cancer, was tested.
Total RNAs were isolated from cells using RNeasy kit (Qiagen) following manufacturer's instructions. RNAs were reverse transcribed into cDNAs by using Superscript III reverse transcription kit (Invitrogen). Real-time RT-PCR was performed on ABI 7900 96 HT series PCR machine (Applied Biosystem) using SYBR Green Supermix (Bio-Rad Laboratories). The gene-specific primer sets were used at a final concentration of 0.5 μM. All real-time RT-PCR assays were performed in duplicate in at least two independent experiments. Relative expression values of each target gene were normalized to GAPDH mRNA level.

Experiment [2] relates to MCF7, SCP28 and SUM1315-M1B1. As to the kind of experiment: Bone metastatic seeding after cisplatin pre-treatment (IIA injection, BLI). It counts as in vivo, athymic nude mice. The following applies: cisplatin one day before tumor cell injection, 4 days after injection. The method, then:
as §1
To directly test the effect of increased Jagged1 expression in osteoblasts on bone metastasis seeding and progression, two models were utilized. […]

In experiment [3] the test system is SCP28-Jagged1 cells. As to the kind of experiment: SCP28-Jagged1 bone metastasis, late treatment with 15D11 and paclitaxel. Particulars: in words. It counts as in vivo, mice.
Protocol: To evaluate the combinatorial effect of 15D11 with conventional chemotherapy, we treated bone metastasis generated by SCP28-Jagged1 cells with 15D11 and paclitaxel, using the late treatment protocol (treatment initiated 1 week after IC injection) (FIG. 3A). […] Mice were treated with IgG (as negative control), 15D11, paclitaxel, or both, one week after IC injection of SCP28-Jagged1 to establish bone metastases.
For experimental bone metastasis, three models were used using intra-cardiac (IC), intra-iliac artery (IIA), and intra-tibia (i.t.) injection methods, as previously described (Andersen et al., 2003; Sethi et al., 2011; Wang et al., 2015). Bone metastasis burden was monitored by weekly BLI and X-ray imaging. At the experimental endpoint, mice were euthanized for bone histology analysis and half of the bone samples were used for μCT imaging and bone density quantification.
The initial treatment is either one day before tumor cell injection or one week after tumor cell injection as described in each experiment. For IgG or 15D11 antibody treatment, mice were i.p. injected at the dosing of 10 mg/kg, twice a week. […] For paclitaxel treatment, paclitaxol powder was first dissolved in 95% ethanol, sonicated and shaken overnight, before mixing 1:1 with cremophor (Sigma Catalog#:769193-1KG) to reach the final concentration of 20 mg/ml. […]
Experiment [4] relates to SCP28 cells. The experiment can be described thus: Parental SCP28 bone metastasis, late treatment with 15D11 and paclitaxel. The format is in vivo, mice. Particulars: low endogenous Jagged1. An excerpt: FIG. 4. Synergistic inhibition of bone metastasis by SCP28 with combined treatment of 15D11 and chemotherapy. (A) Schematic illustration of the experimental procedure. (B) Quantification of bone metastasis burden based on BLI imaging. n=10. *p<0.05 and **p<0.01 by Mann-Whitney test. (C) Representative BLI images and X-ray images at week 6. (D) Representative H&E and TRAP staining images from the experiment. (E) Quantification of osteolytic lesions based on X-ray images. n=10. **p<0.01 by Student's t-test. (F) Quantification of TRAP+ osteoclasts from decalcified histological bone sections of hind limbs from mice, n=10. **p<0.01 by Student's t-test. Size bar: 100 μm for H&E and 50 μm for TRAP.
The strong inhibitory effect of the combined treatment on bone metastasis could potentially be explained by the combined effect of blocking Jagged1-dependent stromal engagement by 15D11 and cytotoxicity of paclitaxel to tumor cells. […]
Mice were purchased from Jackson laboratory. […] Spontaneous bone metastasis was monitored by X-ray imaging. […] Bone metastasis burden was monitored by weekly BLI and X-ray imaging. At the experimental endpoint, mice were euthanized for bone histology analysis and half of the bone samples were used for μCT imaging and bone density quantification.

Turning to `N.N.[Cl][Pt][Cl]` [cisplatin], in experiment [1], the Jagged1 expression entry is “significantly increased” and the Jagged1 induction entry was “no significant induction”. Further, in experiment [2], the “bone metastatic seeding (BLI)” value is given as “significant increase”.
As to `CC(=O)O[C@H]1C(=O)[C@@]2(C)[C@H]([C@H](OC(=O)c3ccccc3)[C@]3(O)C[C@H](OC(=O)[C@H](O)[C@@H](NC(=O)c4ccccc4)c4ccccc4)C(C)=C1C3(C)C)[C@]1(OC(C)=O)CO[C@@H]1C[C@@H]2O` [paclitaxel], in experiment [3], the “tumor burden at the end point” value is given as “only a mild reduction of tumor burden”. For the same compound, the bone metastasis burden result in experiment [4] was “only slightly reduced metastatic burden”. Moreover, in experiment [1], the Jagged1 expression result was “significantly increased” and the Jagged1 induction entry is recorded as “no significant induction”.

Values taken from patent publication US20200237909A1, “METHODS OF TREATING OR PREVENTING BREAST CANCER METASTASES USING ANTIBODIES TO JAGGED1 AND CHEMOTHERAPEUTIC AGENTS” (The Trustees of Princeton University, priority 2017, published 2020).
